Read-outs that look alike come from different tables or passages of the source.
Experiments:
[1] = test system: Shay ulcers; assay: Gastric ulcers provoked by tying of the pylorus (Shay ulcers); type: in vivo; conditions: intraduodenal; rat, 50mg/kg/i.d.; read-out: Percentage reduction of shay ulcers
Experimental: The derivatives of formula I, administered by oral means, reduce the extent of gastric ulcers provoked in a rat by tying of the pylorus (Shay ulcers)
Table IV indicated, by way of example, the results obtained by the administration of 50mg/kg/i.d. of different derivatives of formula I.

[2] = test system: bronchoconstriction provoked by acetylcholine; assay: Bronchoconstriction provoked by intravenous acetylcholine, Konzett method; type: in vivo; conditions: guinea-pig, intraperitoneal injection of 100mg/kg
Experimental: Injected by intraduodenal means, the derivatives of formula I are capable of opposing the bronchoconstriction provoked in the guinea - pig by the intraveinous injection of acetylcholine and evaluated by the Konzett method.
By way of example, the following Table VI lists the percentage inhibition of the bronchoconstriction following the intraperitoneal injection of 100mg/kg of different derivatives of formula I.

[3] = test system: local oedema caused by sub-plantar injection of carraghenine; assay: Sub-plantar oedema caused by carraghenine (antiinflammatory); type: in vivo, rat; conditions: for inhibition in vivo at 100 mg/kg: 100 mg/kg/PO, read-out: Percentage reduction of subplantar oedema; for ED50: po
From the text: These properties are shown by a diminution of the local oedema caused by the sub-plantar injection of a phlogogenic agent, such as carraghenine, in the rat following the oral administration of derivatives of formula I.

[4] = Lethal doses / percentage mortality; type: in vivo; conditions: in vivo, mouse; for LD50: po, Table IX, read-out: DE 50 (second column; DL 50) (converted)
From the text: (§1) As a result of a comparison between the pharmacologically active doses mentioned above, and the lethal doses listed in the following table XIV, the difference between the doses is sufficiently great to permit the utilisation of the derivatives of formula I in therapeutics.

[5] = test system: volume of urine emitted; assay: Augmentation of urinary elimination (diuretic properties); type: in vivo; conditions: po; mouse, 25mg/kg/p.o., 6 hours; read-out: Percentage augmentation of urinary elimination
Experimental: The derivatives of formula I, administered by oral means to the mouse, simultaneously with a volume of 1ml of an isotonic solution of sodium chloride per 25g of the corporeal weight of the mouse, are capable of provoking an augmentation of the volume of urine emitted by reference to control animals, the volume being measured for 6 hours following administration.
The following Table VII indicates, by way of example the percentage augmentation of urinary elimination resulting from the administration of 25mg/kg/p.o. of different derivatives of formula I.

[6] = test system: isolated heart of the guinea-pig; assay: Force of contractions on isolated heart (positive inotrope action); conditions: 1 μg/ml
Experimental: Additionally, the derivative of Code No. 730 712 added to the conserving medium in a concentration of 1 μg/ml, permit an augmentation of 140% in the force of contractions on the isolated heart of the guinea- pig.

[7] = test system: painful stretchings caused by phenylbenzoquinone; assay: Analgesic test with phenylbenzoquinone (painful stretchings); type: in vivo; conditions: Mus musculus, po, read-out: 105 DE (DE 50)
[8] = test system: painful stretchings caused by bradykinine; assay: Analgesic test with bradykinine (painful stretchings); type: in vivo, mouse; conditions: Mus musculus, po, read-out: 105 DE (DE 50)
[9] = test system: painful stretchings caused by acetic acid; assay: Analgesic test with acetic acid (painful stretchings); type: in vivo, mouse; conditions: po, read-out: 105 DE (DE 50)
[10] = test system: analgesic action of dextromoramide in the Eddy test; assay: Eddy test (potentialisation of dextromoramide analgesia); type: in vivo, mouse; conditions: for ED50: Mus musculus, po, read-out: 105 DE (DE 50)
[11] = test system: crying and jumping in the Randall and Selitto test; assay: Randall and Selitto test; type: in vivo, rat; conditions: for ED50: po, read-out: 105 DE (DE 50)
[12] = test system: mouse; assay: Lethal doses / percentage mortality; type: in vivo; conditions: Table IX
From the text: as §1

[13] = test system: number of explorations in the escape enclosure; assay: Number of explorations in the escape enclosure (sedative properties); type: in vivo, mouse; conditions: Mus musculus, po, read-out: DE 50, number of explorations in the escape enclosure
[14] = test system: number of explorations in the actimeter; assay: Number of explorations in an actimeter having luminous beams and photoelectric cells (sedative properties); type: in vivo; conditions: mouse, oral, read-out: DE 50, number of explorations in the actimeter
Experimental: The derivatives of formula I, administered by oral means to the mouse, reduce the number of explorations in the escape enclosure and in an actimeter having luminous beams and photoelectric cells.
Also, the DE 50 of the derivative of code No. 730 229 is 82mg/kg/p.o. for the test on the number of explorations in the escape enclosure and 120mg/kg/p.o. for the test on the number of explorations in the actimeter.

[15] = test system: pain threshold in the dentary pulp stimulation test; assay: Dentary pulp stimulation test; type: in vivo; conditions: rabbit, 50 mg/kg rectally
From the text: Moreover, the derivatives of formula I, administered rectally to a rabbit, enabled the pain threshold to be raised in the dentary pulp stimulation test.
As an example, the following table XI gives the results of a comparative study between the activity of derivative code number 730 229 and that of glaphenine, the activities being estimated by the dentary stimulation test

[16] = antiinflammatory activity, rat, read-out: DE 50 (the source's name)

| SMILES | inhibition in vivo at 50 mg/kg [1] [%] | Percentage inhibition of bronchoconstriction [2] [%] | mortality ([4]; 2000 mg/kg, 2 000 mg/kg/PO) [%] | change in vivo at 25 mg/kg [5] [%] | ED50 [7] [mg/kg] | ED50 [8] [mg/kg] | ED50 [10] [mg/kg] | LD50 [4] [mg/kg] | DE 50 (second column; DL 50) [12] | further results |
| --- | --- | --- | --- | --- | --- | --- | --- | --- | --- | --- |
| Cc1cc(Nc2ccc(C(N)=O)cc2)nc(-c2ccc(Cl)cc2)n1 [72 311] | 40 | 80 | 0 |  |  |  |  |  |  | inhibition in vivo at 100 mg/kg ([3]; rat): 50% |
| Cc1cc(Nc2ccccc2C(N)=O)nc(-c2cccc(C(F)(F)F)c2)n1 [72 419] |  |  | 0 | 80 |  |  |  |  |  | positive inotrope action [6]: positive inotrope action; inhibition in vivo at 100 mg/kg ([3]; rat): 50% |
| Cc1c(N(C)C)c(=O)n(-c2ccccc2)n1C [amidopyrine, 4-dimethylamino-2,3-dimethyl-1 phenyl-3-pyrazolin-5-one, reference compound] |  |  |  |  | 45 | 48 | 35 | 1050 | 1 050 mg/kg/PO | ED50 ([9]; test with acetic acid, mouse): 80 mg/kg; DE 50 / DL 50 ([11]; Randall and Selitto test): 1.10^-1; ED50 ([11]; Randall and Selitto test, rat): 110 mg/kg; ED50 [3, 16]: 140 mg/kg |
| Cc1cc(Nc2ccc(OCCN3CCOCC3)cc2)nc(-c2ccccc2)n1 [730 229] |  |  |  | 129 | 10 | 45 | 23 | 2800 | 2 800 mg/kg/PO | ED50 [13]: 82 mg/kg; ED50 [14]: 120 mg/kg; ED50 ([9]; test with acetic acid, mouse): 70 mg/kg; ED50 ([11]; Randall and Selitto test, rat): 45 mg/kg; Duration of action [15]: 2 h; Number of rabbits whose pain threshold is increased by 0,5 V [15]: 7/10; Peak action [15]: 1 h; antiinflammatory activity compared with reference compounds ([3]; comparison of Table XIII): clearly superior to that of amidopyrine and acetylsalicylic acid, and hardly inferior to that of glaphenine; ED50 [3, 16]: 22 mg/kg; mortality ([4]; 2 800 mg/kg/PO): ~50% |
| Cc1cc(Nc2ccc(OCCN(C)C)cc2)nc(-c2cccc(Cl)c2)n1 [730 262] |  |  |  |  | 52 | 100 | 60 | 2500 | 2 500 mg/kg/PO | mortality ([4]; 2 2500 mg/kg/PO): ~50% |
| Cc1cc(Nc2ccc(C(N)=O)cc2)nc(-c2ccc3c(c2)OCO3)n1 [730 025] | 35 | 50 | 0 | 140 |  |  |  |  |  |  |
| CC(=O)Oc1ccccc1C(=O)O [acetylsalicylic acid, reference compound] |  |  |  |  | 72 | 180 | > 200 | 700 |  | ED50 ([9]; Mus musculus): 115 mg/kg; effect in Eddy test (40 % with 200) ([10]; 200 mg/kg/PO): 40%; ED50 ([11]; Rattus norvegicus): 110 mg/kg; ED50 ([3]; Rattus norvegicus, read-out: DE 50): 40 mg/kg |
| Cc1cc(Nc2ccccc2C(=O)OCC(O)CO)nc(-c2cccc(C(F)(F)F)c2)n1 (stereo not drawn) [72 502, 2 - (3' - trifluoromethylphenyl)-4-[ortho (β, γ-dihydroxy propoxycarbonyl)phenylamino] -6-methyl pyrimidine] | 35 | 50 | 0 |  |  |  |  |  |  |  |

Reference: patent US3978055A, “Arylamino pyrimidinic derivatives” (priority 1973, dated 1976)
